Measured values published in US20250207131A1, “MODIFIED RNA AGENTS WITH REDUCED OFF-TARGET EFFECT” (Alnylam Pharmaceuticals, Inc., priority 2018, published 2025).
In the oligonucleotide strings, read from the 5' end, every base follows the letter of its sugar. An asterisk marks phosphorothioate; unmarked linkages are phosphodiester. Other units and linkages are bracketed, terminal groups are in braces. A string of capitals states the bases alone. [5'S-Me-N] = (S)-5'-C-methyl nucleoside (N: the base); d = 2'-deoxy (DNA); r = 2'-OH (RNA)

Assays:
[1] = tested on: phosphodiesterase II; experiment: Stability toward 5′-specific exonuclease (phosphodiesterase II); format: in vitro ADME; settings: oligo 0.1 mg/mL, 50 mM NaOAc (pH 6.5), 10 mM MgCl2; for Half-lives (T1/2), ty2: Phosphodiesterase-II 500 mU/mL; for Half-lives (T1/2), t12: reduced Phosphodiesterase-II concentration 100 mU/mL
Method: Stability of modified oligonucleotides toward 3′- or 5′-specific exonucleases: Oligonucleotides were prepared in a final concentration of 0.1 mg/mL in either 50 mM Tris (pH 7.2), 10 mM MgCl2 or 50 mM sodium acetate (pH 6.5), 10 mM MgCl2 for assessing the stability towards 3′- or 5′-specific exonucleases, respectively. The exonuclease (150 mU/mL SVPDE for 3′-stability or 500 mU/mL phosphodiesterase II for 5′-stability) was added immediately prior to analysis via IEX HPLC (dionex DNAPac PA200, 4×250 mm) using a gradient of 37-52% mobile phase (1 M NaBr, 20 mM sodium phosphate, pH 11, 15% MeCN; stationary phase: 20 mM sodium phosphate, 15% MeCN, pH 11) over 7.5 min with a flow of 1 mL/min. Samples were analyzed at given time points for up to 24 h. The quantity of full length oligonucleotides was determined as the area under the curve at A260. Percent full length oligonucleotides was calculated by dividing by the area under the curve at t=0 and multiplying by 100. Activity of enzyme was verified for each experiment by including a oligodeoxythymidylate with a terminal phosphorothioate linkage (5′-T19·T (SEQ ID NO: 708) or 5′-T·T19 (SEQ ID NO: 708) for 3′- or 5′-exonuclease activity, respectively). Each aliquot of enzyme was thawed just prior to the experiment. The half-life was determined by fitting to first order kinetics.
5′-Nuclease Stability:_To evaluate the 5′-exonuclease stability of enantiomerically pure (R)- and (S)-5′-C-methyl (C5′-Me) Guanosine substituted nucleosides a dT20 template sequence (“dT20” disclosed as SEQ ID NO: 1) was modified at the 5′-end with one modified nucleotide via PO or PS linkages (Table 13). The structures of the compounds are shown below with guanosine for comparison.
A dT20 template (“dT20” disclosed as SEQ ID NO: 1) having 5′end dT with PS linkages and 5′end Guanosine (G) with either PO or PS linkages were used as the control. ONs were incubated with Phosphodiesterase-II (500 mU/mL), and the half-life (T½) of each modified ON was determined by HPLC-based quantification of the full-length ON as a function of time. The results are summarized in Table 13 and HPLC stability profiles are depicted in FIGS. 24A and 24B showing decay curve of dT20 (SEQ ID NO: 1) modified at the 5′ end with Guanosine and (R) or (S)-5′-C-methyl Guanosine (C5′-MeG) with PO or PS linkages upon incubation with 5′ exonucleases-phosphodiesterase-II as a function of time. FIG. 24A is for the following conditions: a) enzyme conc. 500 mU/mL, Oligo Conc. 0.1 mg/mL, 50 mM NaOAc (pH-6.5):10 Mm MgCl2. FIG. 24B is for the following conditions: enzyme conc. 100 mU/mL, Oligo Conc. 0.1 mg/mL, 50 mM NaOAc (pH-6.5):10 mM MgCl2. The percentage full length ON is calculated by dividing the area under the peak corresponding to full length ON at a given time point by the full length at t=0 and multiplied by 100.
Stability of modified oligonucleotides toward 3′- or 5′-specific exonucleases: Modified oligonucleotides were prepared in a final concentration of 0.1 mg/mL in either 300 mM Tris (pH 7.2), 60 mM MgCl2 or 300 mM sodium acetate (pH 6.5), 60 mM MgCl2 for assessing the stability towards 3′- or 5′-specific exonucleases, respectively. […] Samples were analyzed at given time points for up to 24 h. The quantity of full length oligonucleotides was determined as the area under the curve at A260. Percent full length oligonucleotides was calculated by dividing by the area under the curve at t=0 and multiplying by 100. […]

[2] = tested on: TTR; experiment: In vitro on-target activity, primary mouse hepatocytes, transfection, RT-qPCR (TTR siRNAs); format: cell-based
Method: Cell culture and transfections: Primary Mouse Hepatocytes (Thermo Fisher Scientific/Gibco) were transfected by adding 4.9 μL of Opti-MEM plus 0.1 μL of Lipofectamine RNAiMax per well (Invitrogen, cat #13778-150) to 5 μL of siRNA duplexes per well into a 384-well plate and incubated at room temperature for 15 minutes. 40 μL of Dulbecco's Modified Eagle Medium (Hep3b) or William's Medium (PMH) containing ˜5 ×10^3 cells were then added to the siRNA mixture. Cells were incubated for 24 hours at 37° C. and then processed for RNA purification. Experiments were performed at 10 nM and 0.1 nM doses of siRNA.
Total RNA isolation using DYNABEADS mRNA Isolation Kit: RNA was isolated using an automated protocol on a BioTek-EL406 platform using DYNABEADs (Invitrogen, cat #61012). Briefly, 70 μL of Lysis/Binding Buffer and 10 μL of lysis buffer containing 3 μL of magnetic beads were added to each well. Plates were incubated on an electromagnetic shaker for 10 minutes at room temperature and then magnetic beads were captured and the supernatant was removed. Bead-bound RNA was then washed 2 times with 150 μL Wash Buffer A and once with Wash Buffer B. Beads were then washed with 150 μL Elution Buffer, re-captured and supernatant removed.
cDNA synthesis using ABI High capacity cDNA reverse transcription kit (Applied Biosystems, cat #4368813): 12 μL of a master mix containing 1.2 μL 10× Buffer, 0.48 μL 25× dNTPs, 1.2 μL 10× Random primers, 0.6 μL Reverse Transcriptase, 0.6 μL RNase inhibitor and 7.92 μL of H2O per reaction was added to RNA isolated above. Plates were sealed, mixed, and incubated on an electromagnetic shaker for 10 minutes at room temperature, followed by 2 h 37° C.
Real time PCR: 2 μL of cDNA were added to a master mix containing 2 μL water, 0.5 μL of either an appropriate GAPDH TaqMan VIC Probe or the target probe and 5 μL Lightcycler 480 probe master mix (Roche, cat #04887301001) per well in a 384 well plate (Roche, cat #04887301001). Real time PCR was done in a LightCycler480 Real Time PCR system (Roche). Each duplex was tested in quadruplicate and data were normalized to cells transfected with a non-targeting control siRNA. To calculate relative fold change, real time data were analyzed using the ΔΔCt method and normalized to assays performed with cells transfected with a non-targeting control siRNA.
RT qPCR for Ttr mRNA quantification:_Primary mouse hepatocytes (PMH) were cultured in Williams E Medium with 10% fetal bovine serum. Transfection of cells using RNAiMAX reagent was done as per the manufacturer's recommended protocol. Thus, cells were thawed immediately prior to transfection and then plated onto 384-well plates with a seed density of ˜5000 cells/well. Pre-incubated lipid/siRNA complex (0.1 μL RNAiMax, siRNA, in 5 μL Opti-MEM for 15 min) was added to a 384-well collagen-coated plate (BioCoat; Corning) and cells were incubated for 20 h at 37° C. in an atmosphere of 5% CO2. Eight 6-fold serial dilutions ranging from 10 to 0.036 nM were used to perform dose response experiments. Media was removed before washing and lysing the cells. Using Dynabeads mRNA isolation kit according to manufacturer's protocol, RNA was extracted and subsequently reverse-transcribed with the ABI high capacity cDNA reverse transcription kit. Quantification was done by real-time PCR, whereby the cDNA (2 μL) was added to a master mix that contained 0.5 μL mouse Gapdh TaqMan Probe, 0.5 μL Ttr TaqMan probes, and 5 μL Lightcycler 480 probe master mix per well in a 384-well 50 plate. Real-time PCR was accomplished in an ABI 7900HT RT-PCR system using the ΔΔCt (RQ) assay. Each duplex and concentration was tested in four biological replicates. To calculate relative fold change, real time data were analyzed using the ΔΔCt method and normalized to assays performed with cells transfected with 10 nM nonspecific siRNA. IC50 values were calculated using a 4-parameter fit model using XLFit.

[3] = tested on: luciferase reporter plasmids (psiCHECK2, Renilla luciferase fused to target sequence); experiment: Off-target Dual-Glo luciferase reporter assay in COS-7 cells; format: cell-based; settings: luciferase reporter plasmids co-transfected with siRNAs into COS-7 cells
Method: Dual-Glo® Luciferase assay: Cos7 cells (ATCC, Manassas, VA) were grown to near confluence at 37° C. in an atmosphere of 5% CO2 in DMEM (ATCC) supplemented with 10% FBS, before being released from the plate by trypsinization. siRNA and psiCHCECK2 plasmid transfection was carried out by adding 5 μL of siRNA duplexes and 5 μL of psiCHECK2 plasmid per well along with 5 μL of Opti-MEM plus 0.1 μL of Lipofectamine 2000 per well (Invitrogen, Carlsbad CA. cat #13778-150) and then incubated at room temperature for 15 minutes. The mixture was then added to the cells which were re-suspended in 35 ul of fresh complete media. The transfected cells were incubated at 37° C. in an atmosphere of 5% CO2.
48 hours after the siRNAs and psiCHECK2 plasmid were transfected; Firefly (transfection control) and Renilla (fused to target sequence) luciferase were measured. First, media was removed from cells. Then Firefly luciferase activity was measured by adding 20 μL of Dual-Glo® Luciferase Reagent equal to the culture medium volume to each well and mix. The mixture was incubated at room temperature for 30 minutes before luminescence (500 nm) was measured on a Spectramax (Molecular Devices) to detect the Firefly luciferase signal. Renilla luciferase activity was measured by adding 20 μL of room temperature of Dual-Glo® Stop & Glo® Reagent was added to each well and the plates were incubated for 10-15 minutes before luminescence was again measured to determine the Renilla luciferase signal. The Dual-Glo® Stop & Glo® Reagent, quenches the firefly luciferase signal and sustained luminescence for the Renilla luciferase reaction. siRNA activity was determined by normalizing the Renilla signal to the Firefly (control) signal within each well. The magnitude of siRNA activity was then assessed relative to cells that were transfected with the same vector but were not treated with siRNA or were treated with a non-targeting siRNA. All transfections were done at n=2 or greater.

[4] = Rat toxicity study, clinical pathology parameters; settings: rats, single subcutaneous dose 30 mg/kg, cohort average

Substance: GpodT19: G(dT)19, 5′ guanosine, PO linkage (DNA rGdTdTdTdTdTdTdTdTdTdTdTdTdTdTdTdTdTdTdT)
- Half-lives (T1/2), ty2 [1]: <1 h
- Half-lives (T1/2), t12 [1]: <1 h

Substance: GpsdT19: Gs(dT)19, 5′ guanosine, PS linkage (DNA rG*dTdTdTdTdTdTdTdTdTdTdTdTdTdTdTdTdTdTdT)
- Half-lives (T1/2), ty2 [1]: 41 h

Substance: Parent (AD-64958): TTR siRNA; passenger a•a•caguGuUCUugcucuauaa(L), guide u•U•auaGagcaagaAcAcuguu•u•u (sense CAGUGUUCUUGCUCUAUAA; antisense AUAGAGCAAGAACACUGUU; phosphorothioate ends, overhangs, chemistry not fully specified)
- On-Target mRNA remaining (%) 0.1 nM siRNA ([2]; TTR (Seq 2), primary mouse hepatocytes, 0.1 nM siRNA): 25.5%
- On-Target mRNA remaining (%) 10 nM siRNA ([2]; TTR (Seq 2), primary mouse hepatocytes, 10 nM siRNA): 2.3%
- IC50 ([3]; TTR (Seq 2)): 0.05 nM
- A/G Avg. [4]: 1.3
- ALB Avg. [4]: 2.9 g/dL
- ALP Avg. [4]: 427 U/L
- ALT Avg. [4]: 108 U/L
- AST Avg. [4]: 332 U/L
- BILI Avg. [4]: 0.48 mg/dL
- CA Avg. [4]: 9.9 mg/dL
- CHOL Avg. [4]: 43 mg/dL
- CREAT Avg. [4]: 0.21 mg/dL
- GLDH Avg. [4]: 140.8 U/L
- GLOB Avg. [4]: 2.27 g/dL
- GLUC Avg. [4]: 124 mg/dL
- K Avg. [4]: 4.9 mmol/L
- NA Avg. [4]: 140 mmol/L
- PHOS Avg. [4]: 9.0 mg/dL
- PROT Avg. [4]: 5 g/dL
- TRIG Avg. [4]: 51 mg/dL
- UREAN Avg. [4]: 18.6 mg/dL

Substance: Parent (AD-125773): TTR siRNA; passenger u•u•cuugCuCUAuaaaccgugu(L), guide a•C•acgguuuauagAgCaagaa•c•a (sense CUUGCUCUAUAAACCGUGU; antisense ACGGUUUAUAGAGCAAGAA; phosphorothioate ends, overhangs, chemistry not fully specified)
- IC50 ([2]; TTR-4, modification at antisense position 7, primary mouse hepatocytes): 0.136 nM
- IC50 ([3]; TTR-4, modification at antisense position 7): 1.21 nM

Substance: SpodT19: (G5m)(dT)19, 5′-end (S)-5′-C-methyl guanosine, PO linkage ([5'S-Me-G]dTdTdTdTdTdTdTdTdTdTdTdTdTdTdTdTdTdTdT)
- Half-lives (T1/2), ty2 [1]: <1 h
- Half-lives (T1/2), t12 [1]: <1 h
